Test [1] concerns the target T1, HIV protease (Human immunodeficiency virus type 1 group M subtype B, UniProt P04585). Put plainly: peptide cleavage assay (HIV protease assay). The test is classed as biochemical.
The target in test [2] is T1, HIV protease. Put plainly: Assay for Inhibition of Recombinant HIV Protease (tritiated peptide substrate cleavage). Type of test: biochemical. On the set-up: the HIV protease expressed in Escherichia coli; made in house; host or cells: Escherichia coli. The settings on record: pH 5.5, 60 minutes at 37° C., HIV protease expressed in Escherichia coli, [3H]-peptide substrate. On the procedure:
Assay for Inhibition of Recombinant HIV Protease
Inhibition studies were performed on the reaction of the HIV protease expressed in Escherichia coli with a tritiated peptide substrate, [^3 H]-acetyl-Val-Ser-Gln-Asn-(beta-napthyl-Ala)-Pro-Ile-Val-Gin-Gly-Arg-Arg-NH2 (MW 1800). The two arginine residues at the carboxyl terminus give this peptide an overall positive charge at acidic pH and enable it to bind to the H^+ form of DOWEX AG-50W-X8 resin and similar resins.
Aliquots of 25 μl containing 6.0-8.0 nM HIV protease in assay buffer (100 mM sodium acetate, pH 5.5 and 0.1% BSA) are placed in assay tubes. The reaction is initiated by addition of 25 μl aliquots of 4.2 μM tritiated peptide substrate in 100 mM sodium acetate, pH 5.5. After incubation for 60 minutes at 37° C., the reaction is stopped with 100 μl of 5% H3 PO4, then analysed by application of column chromatography.

pIC50: −log10 of the molar value.

Regarding `C=C1C(C)C2C(Cc3ccccc3)NC(=O)C23C(OC(C)=O)C=CC(C)CC(C)CC=CC3C1O` (centres unmarked) [Compound 1], the pIC50 against HIV protease [1] was roughly 5.20; at HIV protease [2], 5.00.

`C=C1C(C)C2C(Cc3ccccc3)NC(=O)C23C(OC(C)=O)C=CC(C)CC(CO)CC=CC3C1O` (centres unmarked) [Compound 2]: the pIC50 at HIV protease [2] was 4.37.

With `C=C1C(C)C2C(Cc3ccc(O)cc3)NC(=O)C23C(OC(C)=O)C=CC(C)CC(CO)CC=CC3C1O` (centres unmarked) [Compound 3], the pIC50 at HIV protease [2] was 4.40.

For the compound `C=C1C(C)C2C(Cc3cccc(O)c3)NC(=O)C23C(OC(C)=O)C=CC(C)CC(CO)CC=CC3C1O` (centres unmarked) [Compound 4], the pIC50 at HIV protease [2] was 4.60. Regarding `C=C1C(C)C2C(Cc3ccc(O)c(O)c3)NC(=O)C23C(OC(C)=O)C=CC(C)CC(CO)CC=CC3C1O` (centres unmarked) [Compound 5], on HIV protease [2], the pIC50 is less than 4.30. With `C=C1C(C)C2C(Cc3ccccc3)NC(=O)C23C(OC(C)=O)C=CC(C)CC(O)(CO)CC=CC3C1O` (centres unmarked) [Compound 6], the pIC50 at HIV protease [2] is less than 4.30. Same read-out and setting: next, `C=C1C(C)C2C(Cc3cccc(O)c3)NC(=O)C23C(OC(C)=O)C=CC(C)CC(O)(CO)CC=CC3C1O` (centres unmarked) [Compound 7]: less than 4.30.

The record behind these values is patent US5250563A, “Inhibitors of HIV protease” (Merck & Co., Inc., priority 1992, dated 1993).
